Data as given in EP0617046A1, “Nucleoside derivatives and antiherpes composition” (NIPPON CHEMIPHAR CO., LTD., priority 1993, dated 1994).
≈ marks a conversion by molar mass, not a printed value.

Columns and labels:
[1] = tested on: herpes simplex virus (HSV) type 1; conditions: cited from earlier work
[2] = tested on: herpes simplex virus (HSV) type 2; conditions: cited from earlier work
cytomegalovirus (CMV) = conditions: CMV having no thymidine kinase (TK); Clinic and Study, vol. 70, No.8 (1993); cited from earlier work
TK⁺VZV OKA strain = assay: Assay for antiviral activity (plaque formation in HEL cells); format: cell-based, Varicella-zoster virus (VZV); conditions: Human alphaherpesvirus 3, HEL, 120 h, read-out: Antiviral Activity IC₅₀ (µg/mL)
Protocol: (§1) The nucleoside derivative of the invention is further examined in antivairal activity to varicella-zoster virus (VZV) and cytotoxicity by the following tests.
(§2) Human embryonic lung fibroblast (HEL cell, ATCC CCL-137)
(§3) Culture: The cell is cultured in a minimum essential medium (MEM, Gibco) supplemented with 10% inactivated bovine fetal serum, 1% L-glutamine, and 0.3% sodium hydrogen carbonate.
(§4) • (a) Thymidine kinase-positive (TK⁺) strain OKA & YS • (b) Thymidine kinase-deficient (TK⁻) strain YS/R & 07/1
(§5) Cells cultured on a 96-well microtiter plate are inoculated with the virus at an input of 20 plaque formation units (PFU). The cultured cells are incubated at 37°C for 2 hours. Subsequently, remaining virus is removed, and the incubated cells are again cultured in a MEM medium to which are added the test compound, 10% inactivated bovine fetal serum, 1% L-glutamine, and 0.3% sodium hydrogen carbonate in duplicate. After five days culture, the microtiter plate is fixed by ethanol, stained by Giemsa staining method, and microscopically observed for measurement of number of plaques formed. The results are indicated by IC₅₀ (i.e., concentration at which the plaque formation by virus is inhibited by 50%.

TK⁺VZV YS strain = assay: as above; format: cell-based, Varicella-zoster virus (VZV); conditions: Human alphaherpesvirus 3, HEL, 120 h, read-out: Antiviral Activity IC₅₀ (µg/mL)
Protocol: as §1, §2, §3, §4, §5

TK⁻VZV 07/1 strain = assay: as above; format: cell-based, Varicella-zoster virus (VZV); conditions: Human alphaherpesvirus 3, HEL, 120 h, read-out: Antiviral Activity IC₅₀ (µg/mL)
Protocol: as §1, §2, §3, §4, §5

TK⁻VZV YS/R strain = assay: as above; format: cell-based, Varicella-zoster virus (VZV); conditions: Human alphaherpesvirus 3, HEL, 120 h, read-out: Antiviral Activity IC₅₀ (µg/mL)
Protocol: as §1, §2, §3, §4, §5

[3] = Assay for cytotoxicity (cell growth, Coulter Counter); format: cell-based; conditions: human; HEL cells; 3 days incubation; cell growth inhibited by 50%; read-out: Cytotoxicity CC₅₀
Protocol: as §2, §3
HEL cellls of 3 x 10³ cells/well are seeded into a 96 well microtiter plate and allowed to proliferate in a MEM medium containing 10% inactivated bovine fetal serum at 37°C for 24 hours. Subsequently, the medium is changed into a MEM medium containing different concentrations of the tested compound, and then the incubation is continued for another 3 days. When monolayer cells are grown to 70%, number of cells is countered by Coulter Counter. The cytotoxicity is indicated by CC₅₀ (i.e., concentration at which the cell growth is inhibited by 50%.).

SMILES | concentration showing inhibitory effect [1] | concentration showing inhibitory effect [2] | effectiveness to cytomegalovirus (CMV) (cytomegalovirus (CMV)) | IC50 (TK⁺VZV OKA strain) [µg/mL] | IC50 (TK⁺VZV YS strain) [µg/mL] | IC50 (TK⁻VZV 07/1 strain) [µg/mL] | IC50 (TK⁻VZV YS/R strain) [µg/mL] | CC50 at 72 h [3] [µg/mL]
Nc1nc2c(ncn2COCCO)c(=O)[nH]1 [Acyclovir] | less than 0.05 µL/mL | less than 0.05 µL/mL | not effective | – | – | – | – | –
Nc1ncnc2c1ncn2[C@@H]1O[C@H](COC2(c3ccccc3)c3ccccc3Oc3ccccc32)[C@@H](OC2(c3ccccc3)c3ccccc3Oc3ccccc32)[C@H]1OC1CCCCO1 (some centres unmarked) [Example 2, 2'-O-Tetrahydropyranyl-3',5'-O-di(9-phenylxanthenyl)adenosine] | – | – | – | 2 (≈ 2.31 µM) | 1 (≈ 1.16 µM) | 0.8 (≈ 0.926 µM) | 2 (≈ 2.31 µM) | > 50
